Experimental data from ChEMBL document CHEMBL4665688, “Discovery of AB680: A Potent and Selective Inhibitor of CD73” (J Med Chem, 2020).

Columns and labels:
5'-nucleotidase [1] = biological target: T1, 5'-nucleotidase (Homo sapiens, UniProt P21589); assay: Inhibition of human CD73 expressed in CHO cells using AMP as substrate preincubated for 60 mins followed by substrate addition and measured after 60 mins by PiColorLock gold reagent based colorimetric assay; format: cell-based
[2] = Clearance in Sprague-Dawley rat at 0.5 mg/kg, iv; format: ADME, organism-based; settings: in vivo
5'-nucleotidase [3] = biological target: T1, 5'-nucleotidase; assay: Inhibition of soluble human CD73
5'-nucleotidase [4] = biological target: T1, 5'-nucleotidase; assay: Inhibition of CD73 in human CD8-positive T cells using AMP as substrate preincubated for 60 mins followed by substrate addition and measured after 2.5 hrs by PiColorLock gold reagent based colorimetric assay; format: cell-based, CD8-positive T cell
5'-nucleotidase [5] = biological target: T1, 5'-nucleotidase; assay: Inhibition of CD73 in human PBMC using AMP as substrate preincubated for 60 mins followed by substrate addition and measured after 2.5 hrs by PiColorLock gold reagent based colorimetric assay; format: tissue-based
[6] = biological target: T2, Ectonucleoside triphosphate diphosphohydrolase 2 (Homo sapiens, UniProt Q9Y5L3); assay: Inhibition of NTPDase 2 (unknown origin) expressed in CHO cells using ATP as substrate preincubated for 1 hr followed by substrate addition and measured after 50 mins by PiColorLock gold reagent based colorimetric assay; format: cell-based
T2 sequence (Q9Y5L3 whole entry): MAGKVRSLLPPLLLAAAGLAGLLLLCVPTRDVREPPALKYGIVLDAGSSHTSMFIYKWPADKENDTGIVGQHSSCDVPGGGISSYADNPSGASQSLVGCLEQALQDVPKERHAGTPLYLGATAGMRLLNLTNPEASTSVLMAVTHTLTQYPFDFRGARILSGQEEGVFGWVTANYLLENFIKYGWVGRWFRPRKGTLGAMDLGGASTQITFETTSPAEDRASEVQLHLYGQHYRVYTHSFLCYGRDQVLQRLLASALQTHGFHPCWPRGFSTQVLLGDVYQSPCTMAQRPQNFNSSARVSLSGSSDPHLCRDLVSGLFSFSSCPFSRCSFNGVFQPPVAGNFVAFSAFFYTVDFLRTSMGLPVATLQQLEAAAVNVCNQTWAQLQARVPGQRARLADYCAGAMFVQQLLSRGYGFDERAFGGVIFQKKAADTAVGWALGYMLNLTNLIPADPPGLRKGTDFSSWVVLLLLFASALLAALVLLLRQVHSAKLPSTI

[7] = Fraction unbound in Sprague-Dawley rat plasma; format: ADME, cell-free
[8] = Clearance in monkey at 0.5 mg/kg, iv; format: ADME, organism-based, Macaca mulatta; settings: rhesus monkey, in vivo
[9] = Fraction unbound in monkey plasma; format: ADME, cell-free, Macaca mulatta; settings: rhesus monkey
[10] = biological target: T3, Nuclear receptor subfamily 1 group I member 2 (Homo sapiens, UniProt O75469); assay: Activation of PXR (unknown origin) by reporter gene assay; format: ADME
T3 sequence (O75469 whole entry): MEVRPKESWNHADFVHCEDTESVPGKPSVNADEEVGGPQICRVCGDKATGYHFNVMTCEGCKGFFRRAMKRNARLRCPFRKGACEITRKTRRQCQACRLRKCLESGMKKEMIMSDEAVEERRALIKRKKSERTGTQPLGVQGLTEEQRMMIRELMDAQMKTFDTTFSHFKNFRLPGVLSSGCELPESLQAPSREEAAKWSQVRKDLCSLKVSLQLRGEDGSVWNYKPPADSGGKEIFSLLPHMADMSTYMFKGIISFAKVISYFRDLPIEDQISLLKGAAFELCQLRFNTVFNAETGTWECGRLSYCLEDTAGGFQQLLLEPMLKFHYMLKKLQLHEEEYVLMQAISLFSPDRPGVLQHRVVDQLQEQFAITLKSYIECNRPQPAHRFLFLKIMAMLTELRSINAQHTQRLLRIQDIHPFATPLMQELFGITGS

[11] = Chemical stability of the compound in basic condition; format: physicochemical
Cytochrome P450 1A2 [12] = biological target: T4, Cytochrome P450 1A2 (Homo sapiens, UniProt P05177); assay: Inhibition of CYP1A2 in human liver microsomes using phenacetin as substrate incubated for 5 to 20 mins in presence of NADPH by LC-MS/MS analysis; format: ADME; settings: time 5-20 min; read-out: INH
T4 sequence (P05177 whole entry): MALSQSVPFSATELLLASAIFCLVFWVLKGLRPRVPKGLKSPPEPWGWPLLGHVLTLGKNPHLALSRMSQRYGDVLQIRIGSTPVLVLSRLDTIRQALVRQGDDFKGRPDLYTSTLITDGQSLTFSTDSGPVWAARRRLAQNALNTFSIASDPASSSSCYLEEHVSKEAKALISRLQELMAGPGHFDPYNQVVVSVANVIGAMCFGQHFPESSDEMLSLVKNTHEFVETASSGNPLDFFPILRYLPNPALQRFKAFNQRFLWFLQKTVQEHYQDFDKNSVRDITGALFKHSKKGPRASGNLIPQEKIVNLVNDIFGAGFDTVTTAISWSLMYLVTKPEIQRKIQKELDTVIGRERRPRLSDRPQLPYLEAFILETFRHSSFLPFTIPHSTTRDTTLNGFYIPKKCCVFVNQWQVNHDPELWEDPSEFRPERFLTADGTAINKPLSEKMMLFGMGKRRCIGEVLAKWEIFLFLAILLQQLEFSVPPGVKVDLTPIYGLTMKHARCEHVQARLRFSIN

Cytochrome P450 2C9 [13] = biological target: T5, Cytochrome P450 2C9 (Homo sapiens, UniProt P11712); assay: Inhibition of CYP2C9 in human liver microsomes using diclofenac as substrate incubated for 5 to 20 mins in presence of NADPH by LC-MS/MS analysis; format: ADME; settings: time 5-20 min
Cytochrome P450 1A2 [14] = biological target: T4, Cytochrome P450 1A2; assay: Time dependent inhibition of CYP1A2 in human liver microsomes using phenacetin as substrate in presence of NADPH by LC-MS/MS analysis; format: ADME
Cytochrome P450 2C9 [15] = biological target: T5, Cytochrome P450 2C9; assay: Time dependent inhibition of CYP2C9 in human liver microsomes using diclofenac as substrate in presence of NADPH by LC-MS/MS analysis; format: ADME
[16] = biological target: Voltage-gated inwardly rectifying potassium channel KCNH2 (Homo sapiens, UniProt Q12809); assay: Inhibition of human ERG
[17] = Genotoxicity in Salmonella typhimurium by Ames test; format: toxicity; settings: salmonella enterica subsp. enterica serovar typhimurium
Cytochrome P450 1A2 [18] = biological target: T4, Cytochrome P450 1A2; assay: Induction of CYP1A2 (unknown origin) assessed as effect on CYP1A2 mRNA expression; format: ADME
Cytochrome P450 3A4 = Cytochrome P450 3A4 (Homo sapiens, UniProt P08684); assay: Induction of CYP3A4 (unknown origin) assessed as effect on CYP3A4 mRNA expression; format: ADME
[19] = Cmax in human at 16 mg, iv administered as single infusion for 30 to 60 mins; format: ADME, organism-based; parameters: route intravenous, dose 16 mg, time 30-60; settings: in vivo
[20] = Clearance in human at 16 mg, iv administered as single infusion for 30 to 60 mins; format: ADME, organism-based; settings: in vivo, time 30-60 min
[21] = Volume of distribution at steady state in human at 16 mg, iv administered as single infusion for 30 to 60 mins; format: ADME, organism-based; settings: in vivo, time 30-60 min, read-out: Vdss
[22] = Volume of distribution at steady state in human at 25 mg, iv administered as single infusion for 30 to 60 mins; format: ADME, organism-based; settings: in vivo, time 30-60 min, read-out: Vdss
[23] = Half life in human at 25 mg, iv administered as single infusion for 30 to 60 mins; format: ADME, organism-based; settings: in vivo, time 30-60 min
[24] = Chemical stability of the compound in acidic condition; format: physicochemical

T1 sequence (P21589 whole entry): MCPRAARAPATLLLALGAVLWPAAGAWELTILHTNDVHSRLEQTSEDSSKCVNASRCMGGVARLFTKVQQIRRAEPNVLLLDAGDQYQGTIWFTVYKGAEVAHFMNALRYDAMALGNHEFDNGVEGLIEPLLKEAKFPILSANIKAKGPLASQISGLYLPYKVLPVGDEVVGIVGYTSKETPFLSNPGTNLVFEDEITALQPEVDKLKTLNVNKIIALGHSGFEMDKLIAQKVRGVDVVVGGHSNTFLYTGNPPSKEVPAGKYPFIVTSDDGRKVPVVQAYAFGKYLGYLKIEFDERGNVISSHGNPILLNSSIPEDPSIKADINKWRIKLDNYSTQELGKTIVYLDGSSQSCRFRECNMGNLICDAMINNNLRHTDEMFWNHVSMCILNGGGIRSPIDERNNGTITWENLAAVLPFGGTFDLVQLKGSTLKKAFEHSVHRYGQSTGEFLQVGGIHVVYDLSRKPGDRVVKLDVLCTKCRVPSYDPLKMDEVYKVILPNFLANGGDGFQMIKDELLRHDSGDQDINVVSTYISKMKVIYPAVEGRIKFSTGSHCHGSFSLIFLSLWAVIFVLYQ
T5 sequence (P11712 whole entry): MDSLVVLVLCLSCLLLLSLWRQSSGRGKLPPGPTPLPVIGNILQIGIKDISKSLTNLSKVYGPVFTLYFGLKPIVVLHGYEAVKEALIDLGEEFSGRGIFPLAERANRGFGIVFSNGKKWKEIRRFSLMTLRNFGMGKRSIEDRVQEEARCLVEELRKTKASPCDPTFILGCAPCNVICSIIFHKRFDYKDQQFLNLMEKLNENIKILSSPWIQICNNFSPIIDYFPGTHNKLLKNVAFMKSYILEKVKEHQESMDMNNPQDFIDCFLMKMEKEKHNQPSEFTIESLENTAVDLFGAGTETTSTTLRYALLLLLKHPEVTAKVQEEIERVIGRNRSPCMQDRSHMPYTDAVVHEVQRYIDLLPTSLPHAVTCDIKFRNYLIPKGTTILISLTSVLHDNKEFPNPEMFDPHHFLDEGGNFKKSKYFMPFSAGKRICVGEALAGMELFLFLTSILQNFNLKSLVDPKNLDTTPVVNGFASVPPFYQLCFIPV
Chain of Cytochrome P450 3A4 (P08684 whole entry, the tested form may be a part): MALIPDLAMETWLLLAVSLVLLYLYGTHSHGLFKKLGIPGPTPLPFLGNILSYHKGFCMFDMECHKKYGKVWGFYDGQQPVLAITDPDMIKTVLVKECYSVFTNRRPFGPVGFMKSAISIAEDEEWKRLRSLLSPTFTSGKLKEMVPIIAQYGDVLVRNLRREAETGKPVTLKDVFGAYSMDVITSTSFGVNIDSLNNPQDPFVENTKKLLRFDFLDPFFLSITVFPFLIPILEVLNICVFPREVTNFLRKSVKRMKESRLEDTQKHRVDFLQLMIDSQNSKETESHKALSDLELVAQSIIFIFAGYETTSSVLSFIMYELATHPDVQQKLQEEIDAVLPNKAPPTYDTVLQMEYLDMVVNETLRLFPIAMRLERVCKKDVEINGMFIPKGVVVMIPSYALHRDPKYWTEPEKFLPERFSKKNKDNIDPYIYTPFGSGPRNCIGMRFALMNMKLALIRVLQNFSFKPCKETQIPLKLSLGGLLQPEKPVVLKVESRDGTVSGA
Chain of Voltage-gated inwardly rectifying potassium channel KCNH2 (Q12809 whole entry): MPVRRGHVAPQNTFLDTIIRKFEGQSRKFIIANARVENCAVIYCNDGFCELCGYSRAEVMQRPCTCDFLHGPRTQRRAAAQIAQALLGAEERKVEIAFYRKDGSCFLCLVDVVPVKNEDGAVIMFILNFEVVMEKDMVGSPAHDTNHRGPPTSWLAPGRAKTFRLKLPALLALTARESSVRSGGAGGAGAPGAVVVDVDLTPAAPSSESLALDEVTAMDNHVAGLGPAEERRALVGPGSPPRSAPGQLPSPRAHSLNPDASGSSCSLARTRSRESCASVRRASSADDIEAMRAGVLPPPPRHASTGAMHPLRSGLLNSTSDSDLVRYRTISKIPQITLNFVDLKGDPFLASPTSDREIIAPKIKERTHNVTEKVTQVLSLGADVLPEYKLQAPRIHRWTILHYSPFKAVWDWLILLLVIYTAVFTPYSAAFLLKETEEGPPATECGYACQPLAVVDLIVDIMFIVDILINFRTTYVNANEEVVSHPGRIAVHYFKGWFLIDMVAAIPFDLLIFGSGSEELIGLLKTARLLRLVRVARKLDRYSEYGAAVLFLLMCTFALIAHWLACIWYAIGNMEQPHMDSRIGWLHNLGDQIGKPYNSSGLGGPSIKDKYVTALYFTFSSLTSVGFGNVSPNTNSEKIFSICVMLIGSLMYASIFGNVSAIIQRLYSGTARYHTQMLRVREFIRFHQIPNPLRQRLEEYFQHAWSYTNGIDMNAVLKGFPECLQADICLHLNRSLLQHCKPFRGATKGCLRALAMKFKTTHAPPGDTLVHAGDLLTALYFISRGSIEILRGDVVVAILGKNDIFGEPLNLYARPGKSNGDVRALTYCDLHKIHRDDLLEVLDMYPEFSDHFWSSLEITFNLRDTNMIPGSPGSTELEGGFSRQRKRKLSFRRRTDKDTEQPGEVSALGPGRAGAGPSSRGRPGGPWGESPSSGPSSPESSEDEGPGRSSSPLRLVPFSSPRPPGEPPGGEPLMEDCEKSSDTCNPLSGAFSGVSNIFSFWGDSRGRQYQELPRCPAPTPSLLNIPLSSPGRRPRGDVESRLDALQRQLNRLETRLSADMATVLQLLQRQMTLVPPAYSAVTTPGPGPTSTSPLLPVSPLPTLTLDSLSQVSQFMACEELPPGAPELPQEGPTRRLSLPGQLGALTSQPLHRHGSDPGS

Compound: C[C@H](Nc1nc(Cl)nc2c1cnn2[C@@H]1O[C@H](COP(=O)(O)CP(=O)(O)O)[C@@H](O)[C@H]1O)c1ccccc1
- IC50 (5'-nucleotidase [1]): 0.045 nM
- clearance [2]: 64 mL/h/kg
- IC50 (5'-nucleotidase [3]): 0.053 nM
- IC50 (5'-nucleotidase [4]): 0.0027 nM
- IC50 (5'-nucleotidase [5]): 0.0085 nM
- IC50 [6]: > 10000 nM
- fraction unbound [7]: 0.0095
- clearance [8]: 2.4 mL/h/kg
- fraction unbound [9]: 0.002

Compound: C[C@H](Nc1cc(Cl)nc2c1cnn2[C@@H]1O[C@H](COP(=O)(O)CP(=O)(O)O)[C@@H](O)[C@H]1O)c1ccccc1F
- Activity [10]: Not Active
- Stabilty [11]: Stable
- clearance [2]: 20 mL/h/kg
- IC50 [6]: > 10000 nM
- fraction unbound [7]: 0.0017
- clearance [8]: 2.5 mL/h/kg
- fraction unbound [9]: 0.0059
- IC50 (Cytochrome P450 1A2 [12]): > 100000 nM
- INH (Cytochrome P450 2C9 [13]): > 100 µM
- TDI (Cytochrome P450 1A2 [14]): Not Active
- TDI (Cytochrome P450 2C9 [15]): Not Active
- IC50 [16]: > 10000 nM
- Activity [17]: Non-Toxic
- Activity (Cytochrome P450 1A2 [18]): Not Active
- Activity (Cytochrome P450 3A4): Not Active
- Cmax [19]: 3910 ng/mL
- clearance [20]: 1.12 mL/min
- Vd [21]: 6.38 L
- Vd [22]: 6.98 L
- half-life [23]: 74.2 h
- Stabilty [24]: Stable

Compound: C[C@H](Nc1cc(Cl)nc2c1cnn2[C@@H]1O[C@H](COP(=O)(O)CP(=O)(O)O)[C@@H](O)[C@H]1O)c1ccc(F)cc1
- Stabilty [11]: Stable
- IC50 (5'-nucleotidase [1]): 0.115 nM
- clearance [2]: 9 mL/h/kg
- IC50 (5'-nucleotidase [4]): 0.01 nM
- IC50 (5'-nucleotidase [5]): 0.021 nM
- IC50 [6]: > 10000 nM
- fraction unbound [7]: 0.0016
- clearance [8]: 1.7 mL/h/kg
- fraction unbound [9]: 0.0034
- Stabilty [24]: Stable
